Laboratory results: US11963972B2, “Antiviral agents and nucleoside analogs for treatment of Zika virus” (priority 2016, dated 2024)
pEC50: −log10 of the molar value. Where two headings read alike, the source gives them in different places. Values belong to the compound of their own block, whether it stands above or below them.

Tests used:
[1] = test system: ZIKV Puerto Rico strain (PRVABC59); experiment: ZIKV CPE MTS assay in Vero cells; assay type: cell-based, Zika virus; settings: Vero cells
Description: (§1) […] Cell cytopathic effect (CPE) MTS assay (CellTiter 96@k) AQueous One Solution Cell Proliferation Promega kit, Promega) was measured four (Vero) or five (U251 or Huh7) days after compound addition to determine the levels of replication inhibition.

[2] = test system: ZIKV Puerto Rico strain (PRVABC59); experiment: ZIKV CPE MTS assay in human neuroblastoma (U251) cells; assay type: cell-based, Zika virus; settings: U251 cells
Description: as §1

ZIKV PRVABC59 = experiment: Combination of SSZ with control 1, ZIKV CPE assay in Vero cells; assay type: cell-based, Zika virus; settings: Vero cells pretreated 18-20 h, MOI 0.01 PRVABC59, read-out: EC50, drug alone, ZIKV CPE assay
Description: Vero cells were pretreated for 18-20 h with SSZ (fixed concentrations of 300, 200 or 100 μM) plus control 1 (10, 5, 2.5 and 0.25 μM) prior to infection with MOI 0.01 PRVABC59 (drugs were replenished right after infection).
Drug-drug interactions were analyzed by using CalcuSyn (Biosoft, Ferguson, MO) computer software: 300, 200, and 100 μM SSZ in the presence of 10, 5, 2.5, and 0.25 μM of control 1 was evaluated versus each drug alone for each drug concentration. The interpretation of Combination Index (CI) values are as follows: Antagonism: CI value>1.0, Additive effect: CI value=1.0; Synergism: CI value=<1.0.

[3] = test system: ZIKV Puerto Rico strain (PRVABC59); experiment: ZIKV CPE MTS assay in Huh7 cells; assay type: cell-based, Zika virus; settings: Huh7 cells
Description: as §1

[4] = human, in vivo; cited from earlier work
DENV-2 [5] = experiment: DENV-2 VERO infectious assay; assay type: cell-based, Dengue virus
[6] = test system: baby hamster kidney (BHK) cells
DENV-2 [7] = experiment: DENV-2 Huh-7 infectious assay; assay type: cell-based; settings: Dengue virus, DENV2, Huh-7
WNV replicon = WNV replicon model; assay type: cell-based; settings: West Nile virus
HCV = HCV activity test; assay type: cell-based
DENV-2 replicon = DENV-2 replicon model; assay type: cell-based; settings: Dengue virus, DENV2
Norovirus = Norovirus activity test; assay type: cell-based

- EC50 ([1]; no pretreat, read-out: ZIKV-CPE MTS Assay EC50, μM, Vero, No pretreat): 0.8 µM
- EC50 ([1]; pretreated 18-20 h before infection, read-out: ZIKV-CPE MTS Assay EC50, μM, Vero, Pretreat): 0.4 µM
- EC50 ([2]; no pretreat, read-out: ZIKV-CPE MTS Assay EC50, μM, U251, No pretreat): 3.5 µM
- EC50 ([2]; pretreated 18-20 h before infection, read-out: ZIKV-CPE MTS Assay EC50, μM, U251, Pretreat): 4 µM
- pEC50 (ZIKV PRVABC59): 5.27
- EC50 ([3]; no pretreat, read-out: ZIKV-CPE MTS Assay EC50, μM, Huh7, No pretreat): 0.4 µM
- EC50 ([3]; pretreated 18-20 h before infection, read-out: ZIKV-CPE MTS Assay EC50, μM, Huh7, Pretreat): 0.5 µM
Compound: C[C@@]1(O)[C@H](O)[C@@H](CO)O[C@H]1n1cc(F)c2cnc(N)nc21 [Control 1, beta-D-2′-C—Me-2-amino-7-fluoro-7-deazapurine ribose, reference compound]

Compound: O=C(O)c1cc(/N=N/c2ccc(S(=O)(=O)Nc3ccccn3)cc2)ccc1O [Sulfasalazine]
- EC50 ([1]; Zika virus, no pretreat, read-out: ZIKV-CPE MTS Assay EC50, μM, Vero, No pretreat): 181 µM
- EC50 ([1]; Zika virus, pretreated 18-20 h before infection, read-out: ZIKV-CPE MTS Assay EC50, μM, Vero, Pretreat): 273 µM
- doses taken without side effects [4]: up to 4 g/day
- safety in pregnancy [4]: safe for a person to take while pregnant
- pEC50 (DENV-2 [5]; Dengue virus, DENV2, Vero): < 4.00
- % inhibition, DENV-2 in Vero cells (DENV-2 [5]; Vero, concentration not given): < 1%
- EC50 ([2]; Zika virus, U-251, no pretreat, read-out: ZIKV-CPE MTS Assay EC50, μM, U251, No pretreat): 385 µM
- EC50 ([2]; Zika virus, U-251, pretreated 18-20 h before infection, read-out: ZIKV-CPE MTS Assay EC50, μM, U251, Pretreat): 318 µM
- Toxicity in baby hamster kidney (BHK) cells [6]: > 100 µM
- toxicity in culture (no toxicity up to) [6]: > 100 µM
- pEC50 (DENV-2 [7]): 4.65
- EC90 (DENV-2 [7]): 61.9 µM
- pEC50 (WNV replicon): 5.00
- EC90 (WNV replicon): 78.3 µM
- inhibition at 30 µM (WNV replicon; at 30 μM): 78.5%
- effect on HCV (no effect observed up to) (HCV): > 100 µM
- pEC50 (DENV-2 replicon): 5.08
- inhibition at 30 µM (DENV-2 replicon; at 30 μM): 77.4%
- effect on Norovirus (no effect observed up to) (Norovirus): > 100 µM
- pEC50 (ZIKV PRVABC59; Zika virus): 3.68
- EC50 ([3]; Zika virus, Huh-7, no pretreat, read-out: ZIKV-CPE MTS Assay EC50, μM, Huh7, No pretreat): 255 µM
- EC50 ([3]; Zika virus, Huh-7, pretreated 18-20 h before infection, read-out: ZIKV-CPE MTS Assay EC50, μM, Huh7, Pretreat): 341 µM
